Laboratory results as given in the kinase profiling compilation of Christmann-Franck et al. (2016).

Experiments:
Experiment in all cases: KINOMEscan competition binding
Settings in all cases: compound 10.0 µM
[1] = target: EPHA2 (human) (UniProt P29317)
[2] = target: PDGFRA (human) (UniProt P16234)
[3] = target: NEK1 (human) (UniProt Q96PY6)
[4] = target: TGFBR2 (human) (UniProt P37173)
[5] = target: STK17A (human) (UniProt Q9UEE5)
[6] = target: PRKG2 (human) (UniProt Q13237)
[7] = target: TLK1 (human) (UniProt Q9UKI8)
[8] = target: HCK (human) (UniProt P08631)
[9] = target: DAPK1 (human) (UniProt P53355)
[10] = target: ANKK1 (human) (UniProt Q8NFD2)
[11] = target: MAP3K1 (human) (UniProt Q13233)
[12] = target: PRKCH (human) (UniProt P24723)
[13] = target: NTRK3 (human) (UniProt Q16288)
[14] = target: PIK3C2B (human) (UniProt O00750)
[15] = target: FLT1 (human) (UniProt P17948)
[16] = target: MAP3K4 (human) (UniProt Q9Y6R4)
[17] = target: CDK8 (human) (UniProt P49336)
[18] = target: TGFBR1 (human) (UniProt P36897)
[19] = target: PRKG1 (human) (UniProt Q13976)
[20] = target: WEE2 (human) (UniProt P0C1S8)
[21] = target: SIK2 (human) (UniProt Q9H0K1)
[22] = target: NUAK2 (human) (UniProt Q9H093)
[23] = target: CaMK1 (human) (UniProt Q14012)
[24] = target: MAPK13 (human) (UniProt O15264)
[25] = target: RPS6KA2 KD1 (human) (UniProt Q15349)
[26] = target: CDK15 (human) (UniProt Q96Q40)
[27] = target: IKBKB (human) (UniProt O14920)
[28] = target: RPS6KA3 KD1 (human) (UniProt P51812)
[29] = target: MKNK1 (human) (UniProt Q9BUB5)
[30] = target: MAP4K4 (human) (UniProt O95819)
[31] = target: RPS6KA5 KD1 (human) (UniProt O75582)
[32] = target: RIOK2 (human) (UniProt Q9BVS4)
[33] = target: SRPK2 (human) (UniProt P78362)
[34] = target: CHEK2 (human) (UniProt O96017)
[35] = target: TAOK3 (human) (UniProt Q9H2K8)
[36] = target: RPS6KA6 KD2 (human) (UniProt Q9UK32)
[37] = target: MAP3K3 (human) (UniProt Q99759)
[38] = target: PRKACA (human) (UniProt P17612)
[39] = target: CSNK2A1 (human) (UniProt P68400)
[40] = target: FGR (human) (UniProt P09769)

Chain of CSNK2A1 (human) (P68400 whole entry, looked up): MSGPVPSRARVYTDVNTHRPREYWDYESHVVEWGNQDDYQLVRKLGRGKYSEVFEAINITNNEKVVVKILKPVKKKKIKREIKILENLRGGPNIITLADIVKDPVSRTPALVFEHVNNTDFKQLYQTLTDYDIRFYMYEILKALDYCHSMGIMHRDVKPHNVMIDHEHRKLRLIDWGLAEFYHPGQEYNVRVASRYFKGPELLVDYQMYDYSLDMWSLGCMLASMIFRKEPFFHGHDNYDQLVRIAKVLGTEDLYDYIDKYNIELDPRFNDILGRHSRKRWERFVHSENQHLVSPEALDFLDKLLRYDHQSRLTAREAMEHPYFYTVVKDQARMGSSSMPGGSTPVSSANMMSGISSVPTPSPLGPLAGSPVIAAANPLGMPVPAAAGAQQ
Chain of MAP3K4 (human) (Q9Y6R4 whole entry, looked up): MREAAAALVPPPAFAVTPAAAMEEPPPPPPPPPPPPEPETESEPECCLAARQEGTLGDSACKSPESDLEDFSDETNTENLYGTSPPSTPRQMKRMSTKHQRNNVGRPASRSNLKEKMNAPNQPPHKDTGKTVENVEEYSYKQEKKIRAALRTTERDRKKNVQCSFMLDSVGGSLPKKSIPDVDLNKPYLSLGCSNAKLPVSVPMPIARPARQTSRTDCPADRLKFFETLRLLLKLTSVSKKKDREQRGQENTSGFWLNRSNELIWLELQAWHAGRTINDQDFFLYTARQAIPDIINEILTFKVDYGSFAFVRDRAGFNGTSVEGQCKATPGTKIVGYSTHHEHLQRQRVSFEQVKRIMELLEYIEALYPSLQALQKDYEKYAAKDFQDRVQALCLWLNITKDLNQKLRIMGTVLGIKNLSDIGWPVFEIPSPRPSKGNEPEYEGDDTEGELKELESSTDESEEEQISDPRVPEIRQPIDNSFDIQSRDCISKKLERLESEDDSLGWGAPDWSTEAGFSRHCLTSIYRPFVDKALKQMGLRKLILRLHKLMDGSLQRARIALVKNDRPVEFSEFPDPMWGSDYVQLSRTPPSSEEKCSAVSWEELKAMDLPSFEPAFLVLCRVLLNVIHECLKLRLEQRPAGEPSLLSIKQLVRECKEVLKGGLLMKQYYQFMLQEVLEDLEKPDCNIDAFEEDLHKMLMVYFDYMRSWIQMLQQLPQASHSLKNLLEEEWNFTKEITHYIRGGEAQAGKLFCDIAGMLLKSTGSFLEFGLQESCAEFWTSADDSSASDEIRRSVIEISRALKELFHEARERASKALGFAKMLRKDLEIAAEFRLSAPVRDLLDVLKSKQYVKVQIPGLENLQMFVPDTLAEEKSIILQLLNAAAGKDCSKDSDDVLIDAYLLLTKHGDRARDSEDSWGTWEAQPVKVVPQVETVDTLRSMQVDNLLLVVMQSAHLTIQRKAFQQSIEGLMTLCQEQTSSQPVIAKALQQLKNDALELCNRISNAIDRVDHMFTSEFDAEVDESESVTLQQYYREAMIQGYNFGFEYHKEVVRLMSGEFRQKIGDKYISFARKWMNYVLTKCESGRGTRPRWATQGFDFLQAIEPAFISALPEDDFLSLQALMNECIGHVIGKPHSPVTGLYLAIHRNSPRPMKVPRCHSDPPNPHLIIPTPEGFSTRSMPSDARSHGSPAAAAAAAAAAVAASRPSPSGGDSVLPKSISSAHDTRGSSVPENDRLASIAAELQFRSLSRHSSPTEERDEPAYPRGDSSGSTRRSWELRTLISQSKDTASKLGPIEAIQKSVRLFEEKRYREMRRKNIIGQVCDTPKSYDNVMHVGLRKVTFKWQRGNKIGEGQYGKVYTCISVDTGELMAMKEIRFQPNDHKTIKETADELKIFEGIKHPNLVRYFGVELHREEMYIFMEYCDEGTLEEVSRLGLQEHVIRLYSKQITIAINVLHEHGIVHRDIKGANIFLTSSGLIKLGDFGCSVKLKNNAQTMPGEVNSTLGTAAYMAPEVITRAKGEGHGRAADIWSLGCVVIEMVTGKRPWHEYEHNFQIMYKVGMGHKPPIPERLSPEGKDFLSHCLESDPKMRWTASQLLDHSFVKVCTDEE
Chain of NUAK2 (human) (Q9H093 whole entry, looked up): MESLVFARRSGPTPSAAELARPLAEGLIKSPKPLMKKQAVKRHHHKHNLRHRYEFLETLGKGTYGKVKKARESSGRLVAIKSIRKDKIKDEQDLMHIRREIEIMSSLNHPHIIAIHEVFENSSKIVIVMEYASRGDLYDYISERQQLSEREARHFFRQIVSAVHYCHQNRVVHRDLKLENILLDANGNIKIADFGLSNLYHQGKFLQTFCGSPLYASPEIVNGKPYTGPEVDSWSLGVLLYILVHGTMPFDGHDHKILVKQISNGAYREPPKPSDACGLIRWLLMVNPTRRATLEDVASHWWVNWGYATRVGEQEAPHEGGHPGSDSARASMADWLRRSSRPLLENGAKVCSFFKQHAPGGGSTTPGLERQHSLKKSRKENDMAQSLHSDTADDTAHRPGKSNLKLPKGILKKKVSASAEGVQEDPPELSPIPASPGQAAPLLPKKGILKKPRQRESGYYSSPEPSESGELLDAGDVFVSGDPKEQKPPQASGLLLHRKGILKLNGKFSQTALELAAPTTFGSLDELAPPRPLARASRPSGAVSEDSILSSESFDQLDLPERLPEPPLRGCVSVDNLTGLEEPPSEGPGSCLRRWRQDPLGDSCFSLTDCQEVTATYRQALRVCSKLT
Chain of MAP3K3 (human) (Q99759 whole entry, looked up): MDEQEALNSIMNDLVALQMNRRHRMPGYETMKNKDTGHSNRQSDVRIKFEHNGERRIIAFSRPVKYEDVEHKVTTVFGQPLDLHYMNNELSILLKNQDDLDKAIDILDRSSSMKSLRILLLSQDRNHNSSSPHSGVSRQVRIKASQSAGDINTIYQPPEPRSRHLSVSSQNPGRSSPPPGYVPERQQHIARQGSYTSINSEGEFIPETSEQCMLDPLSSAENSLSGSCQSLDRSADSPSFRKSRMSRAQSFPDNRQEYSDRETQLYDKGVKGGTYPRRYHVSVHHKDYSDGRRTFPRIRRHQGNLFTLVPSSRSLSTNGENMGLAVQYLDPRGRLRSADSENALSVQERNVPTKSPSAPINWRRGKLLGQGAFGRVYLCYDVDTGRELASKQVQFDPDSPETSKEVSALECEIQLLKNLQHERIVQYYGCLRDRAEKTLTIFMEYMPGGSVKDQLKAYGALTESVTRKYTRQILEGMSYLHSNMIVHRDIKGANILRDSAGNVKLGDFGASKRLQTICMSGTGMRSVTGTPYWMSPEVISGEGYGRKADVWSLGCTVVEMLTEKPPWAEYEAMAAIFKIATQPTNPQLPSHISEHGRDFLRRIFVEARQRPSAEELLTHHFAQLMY
Chain of RPS6KA3 KD1 (human) (P51812 whole entry, looked up): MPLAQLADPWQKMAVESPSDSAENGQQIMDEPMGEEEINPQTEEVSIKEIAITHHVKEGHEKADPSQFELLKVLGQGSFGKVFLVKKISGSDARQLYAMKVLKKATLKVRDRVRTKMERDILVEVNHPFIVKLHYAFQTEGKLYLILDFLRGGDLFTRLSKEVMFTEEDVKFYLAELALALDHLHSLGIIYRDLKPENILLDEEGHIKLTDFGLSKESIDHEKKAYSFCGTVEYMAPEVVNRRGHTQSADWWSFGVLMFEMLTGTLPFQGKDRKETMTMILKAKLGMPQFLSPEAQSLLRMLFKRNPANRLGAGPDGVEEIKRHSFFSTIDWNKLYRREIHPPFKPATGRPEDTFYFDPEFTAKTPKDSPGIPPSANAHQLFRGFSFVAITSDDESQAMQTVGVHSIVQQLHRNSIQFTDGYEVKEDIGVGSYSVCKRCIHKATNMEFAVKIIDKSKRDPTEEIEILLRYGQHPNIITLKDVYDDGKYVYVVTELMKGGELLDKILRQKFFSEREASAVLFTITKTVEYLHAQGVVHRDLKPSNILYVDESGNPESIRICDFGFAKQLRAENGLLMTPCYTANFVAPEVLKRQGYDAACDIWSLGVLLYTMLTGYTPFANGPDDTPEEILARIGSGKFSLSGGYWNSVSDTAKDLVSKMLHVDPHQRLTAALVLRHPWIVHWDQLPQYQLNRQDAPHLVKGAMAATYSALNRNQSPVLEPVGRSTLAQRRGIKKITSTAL
Chain of SIK2 (human) (Q9H0K1 whole entry, looked up): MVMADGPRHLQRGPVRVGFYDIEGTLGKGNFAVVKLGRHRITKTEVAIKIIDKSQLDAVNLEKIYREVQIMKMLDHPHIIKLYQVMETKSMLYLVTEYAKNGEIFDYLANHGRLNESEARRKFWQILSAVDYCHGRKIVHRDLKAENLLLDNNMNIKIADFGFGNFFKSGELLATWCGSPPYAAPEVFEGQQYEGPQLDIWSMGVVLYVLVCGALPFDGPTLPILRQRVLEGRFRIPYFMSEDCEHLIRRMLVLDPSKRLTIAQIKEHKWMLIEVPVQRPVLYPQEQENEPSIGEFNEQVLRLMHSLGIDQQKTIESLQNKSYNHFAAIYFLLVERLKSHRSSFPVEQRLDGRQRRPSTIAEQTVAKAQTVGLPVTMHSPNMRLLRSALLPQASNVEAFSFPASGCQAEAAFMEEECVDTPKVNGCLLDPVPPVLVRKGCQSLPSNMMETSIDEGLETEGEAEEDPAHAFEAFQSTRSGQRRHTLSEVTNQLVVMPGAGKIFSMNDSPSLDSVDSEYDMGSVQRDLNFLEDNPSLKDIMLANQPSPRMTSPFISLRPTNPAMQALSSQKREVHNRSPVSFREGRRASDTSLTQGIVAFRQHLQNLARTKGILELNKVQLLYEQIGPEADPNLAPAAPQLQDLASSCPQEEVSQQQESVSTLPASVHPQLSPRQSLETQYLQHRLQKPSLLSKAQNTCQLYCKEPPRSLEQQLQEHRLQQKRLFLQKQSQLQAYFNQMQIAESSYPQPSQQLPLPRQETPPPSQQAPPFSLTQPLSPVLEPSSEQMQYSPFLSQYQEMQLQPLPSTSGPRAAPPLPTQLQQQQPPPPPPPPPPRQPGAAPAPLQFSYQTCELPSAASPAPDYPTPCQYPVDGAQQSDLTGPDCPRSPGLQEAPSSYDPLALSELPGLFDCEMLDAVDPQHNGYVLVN

kinase still bound, per cent of control [1] [%] | kinase still bound, per cent of control [2] [%] | kinase still bound, per cent of control [3] [%] | kinase still bound, per cent of control [4] [%] | kinase still bound, per cent of control [5] [%] | kinase still bound, per cent of control [6] [%] | kinase still bound, per cent of control [7] [%] | kinase still bound, per cent of control [8] [%] | kinase still bound, per cent of control [9] [%] | kinase still bound, per cent of control [10] [%] | kinase still bound, per cent of control [11] [%] | kinase still bound, per cent of control [12] [%] | kinase still bound, per cent of control [13] [%] | kinase still bound, per cent of control [14] [%] | kinase still bound, per cent of control [15] [%] | kinase still bound, per cent of control [16] [%] | kinase still bound, per cent of control [17] [%] | kinase still bound, per cent of control [18] [%] | kinase still bound, per cent of control [19] [%] | kinase still bound, per cent of control [20] [%] | Structure (SMILES) | further results
100 | 0 | 100 | 100 | 100 | 100 | 100 | 100 | 100 | 100 | 100 | 100 | 100 | 22 | 100 | 100 | 100 | 100 | 100 | 100 | CS(=O)(=O)N1CCN(Cc2cc3nc(-c4cccc5[nH]ncc45)nc(N4CCOCC4)c3s2)CC1 | kinase still bound, per cent of control [21]: 100%; kinase still bound, per cent of control [22]: 100%; kinase still bound, per cent of control [23]: 100%; kinase still bound, per cent of control [24]: 100%; kinase still bound, per cent of control [25]: 100%; kinase still bound, per cent of control [26]: 100%; kinase still bound, per cent of control [27]: 100%; kinase still bound, per cent of control [28]: 100%; kinase still bound, per cent of control [29]: 100%; kinase still bound, per cent of control [30]: 100%; kinase still bound, per cent of control [31]: 100%; kinase still bound, per cent of control [32]: 100%; kinase still bound, per cent of control [33]: 100%; kinase still bound, per cent of control [34]: 100%; kinase still bound, per cent of control [35]: 100%; kinase still bound, per cent of control [36]: 100%; kinase still bound, per cent of control [37]: 100%; kinase still bound, per cent of control [38]: 100%; kinase still bound, per cent of control [39]: 100%; kinase still bound, per cent of control [40]: 100%
100 | 100 | 100 | 100 | 100 | 100 | 100 | 100 | 100 | 100 | 100 | 100 | 100 | 100 | 5.6 | 5.3 | 100 | 100 | 100 | 100 | CCN(CC)CCCCNc1ncc2c(n1)N(C)C(=O)N(c1c(Cl)c(OC)cc(OC)c1Cl)C2 | kinase still bound, per cent of control [21]: 100%; kinase still bound, per cent of control [22]: 100%; kinase still bound, per cent of control [23]: 100%; kinase still bound, per cent of control [24]: 100%; kinase still bound, per cent of control [25]: 100%; kinase still bound, per cent of control [26]: 100%; kinase still bound, per cent of control [27]: 100%; kinase still bound, per cent of control [28]: 100%; kinase still bound, per cent of control [29]: 100%; kinase still bound, per cent of control [30]: 100%; kinase still bound, per cent of control [31]: 100%; kinase still bound, per cent of control [32]: 100%; kinase still bound, per cent of control [33]: 100%; kinase still bound, per cent of control [34]: 100%; kinase still bound, per cent of control [35]: 0.4%; kinase still bound, per cent of control [36]: 100%; kinase still bound, per cent of control [37]: 3.8%; kinase still bound, per cent of control [38]: 100%; kinase still bound, per cent of control [39]: 100%; kinase still bound, per cent of control [40]: 100%

Structure (SMILES) | kinase still bound, per cent of control [1] [%] | kinase still bound, per cent of control [2] [%] | kinase still bound, per cent of control [3] [%] | kinase still bound, per cent of control [4] [%] | kinase still bound, per cent of control [5] [%] | kinase still bound, per cent of control [6] [%] | kinase still bound, per cent of control [7] [%] | kinase still bound, per cent of control [8] [%] | kinase still bound, per cent of control [9] [%] | kinase still bound, per cent of control [10] [%] | kinase still bound, per cent of control [11] [%] | kinase still bound, per cent of control [12] [%] | kinase still bound, per cent of control [13] [%] | kinase still bound, per cent of control [14] [%] | kinase still bound, per cent of control [15] [%] | kinase still bound, per cent of control [16] [%] | kinase still bound, per cent of control [17] [%] | kinase still bound, per cent of control [18] [%] | kinase still bound, per cent of control [19] [%] | kinase still bound, per cent of control [20] [%] | further results
COc1cc(C(=O)N2CCC(N3CCN(C)CC3)CC2)ccc1Nc1ncc2c(n1)N(C)c1ccccc1C(=O)N2C | 92 | 100 | 83 | 100 | 100 | 74 | 100 | 100 | 73 | 100 | 95 | 100 | 100 | 100 | 100 | 100 | 100 | 100 | 98 | 100 | kinase still bound, per cent of control [21]: 98%; kinase still bound, per cent of control [22]: 47%; kinase still bound, per cent of control [23]: 55%; kinase still bound, per cent of control [24]: 72%; kinase still bound, per cent of control [25]: 83%; kinase still bound, per cent of control [26]: 100%; kinase still bound, per cent of control [27]: 89%; kinase still bound, per cent of control [28]: 77%; kinase still bound, per cent of control [29]: 50%; kinase still bound, per cent of control [30]: 85%; kinase still bound, per cent of control [31]: 96%; kinase still bound, per cent of control [32]: 100%; kinase still bound, per cent of control [33]: 100%; kinase still bound, per cent of control [34]: 66%; kinase still bound, per cent of control [35]: 24%; kinase still bound, per cent of control [36]: 2.2%; kinase still bound, per cent of control [37]: 97%; kinase still bound, per cent of control [38]: 100%; kinase still bound, per cent of control [39]: 100%; kinase still bound, per cent of control [40]: 84%
